Reference: patent US6713491B2, “Heterocyclic derivatives” (priority 1999, dated 2004)

Columns and labels:
[1] = molecular target: T1, strychnine insensitive glycine binding site associated with the NMDA receptor complex (Rattus norvegicus, UniProt P35439); test: binding at the strychnine insensitive glycine binding site (procedure of Kishimoto H et al.)
T1 construct: from tissue; host or cells: rat CNS membranes (inferred from the cited procedure)
Method: (§1) The potent and selective action of the compound of the invention at the strychnine-insensitive glycine binding site present on the NMDA receptor complex may be readily determined using conventional test procedures. Thus the ability to bind at the strychnine insensitive glycine binding site was determined using the procedure of Kishimoto H et al., J Neurochem 1981, 37, 1015-1024. The selectivity of the action of compounds of the invention for the strychnine insensitive glycine site was confirmed in studies at other ionotropic known excitatory amino acid receptors.

[2] = test system: kainic acid (kainate) receptor; test: selectivity study at other ionotropic excitatory amino acid receptors: kainate; format: binding
Method: as §1

[3] = test system: a-amino-3-hydroxy-5-methyl-4-isoxazole-proprionic acid (AMPA) receptor; test: selectivity study at other ionotropic excitatory amino acid receptors: AMPA; format: binding
Method: as §1

NMDA binding site = test: selectivity study at other ionotropic excitatory amino acid receptors: NMDA binding site
Method: as §1

mice = test: tolerability on administration to mice; format: in vivo; conditions: pharmacological active doses

CNC[C@H](O)[C@@H](O)[C@H](O)[C@H](O)CO.O=C(O)C1CC(=C2CCN(c3ccccc3)C2=O)c2ccc(Cl)cc2N1 (single isomer, unassigned; enantiomer a) [compound of the invention, meglumine salt of enantiomer A of 7-chloro-4-(2-oxo-1-phenyl-3-pyrrolidinylidene)-1,2,3,4-tetrahydro-2-quinolinecarboxylic acid]
antagonism at the strychnine insensitive glycine binding site [1]: potent antagonist
affinity for the kainic acid (kainate) receptor [2]: little or no affinity
affinity for the AMPA receptor [3]: little or no affinity
affinity at the NMDA binding site (NMDA binding site): little or no affinity
untoward effects (mice): No untoward effects
